# Reference: patent US20240279217A1, “Heterocyclic compounds for the treatment of tuberculosis” (TECNIMEDE - SOCIEDADE TÉCNICO-MEDICINAL, SA, priority 2021, published 2024)
# Columns and labels:
# [1] = Metabolic stability assay in liver microsomes; assay type: in vitro ADME; details: human, pH 7.4, 37° C., 60 minutes
# Experimental: In an embodiment, metabolic stability assay was carried out. Metabolic stability was assessed by incubating test compounds in 96-well plates in 5 aliquots of 40 μL each (one for each time point) in liver microsomal incubation medium. This medium contained MgCl2 (3.3 mM), NADPH-cofactor system (NADPH (3 mM), glucose-6-phosphate (5.3 mM), glucose-6-phosphate dehydrogenase (0.67 units/ml)) and 0.42 mg of liver microsomal protein per ml in phosphate buffer (100 mM, pH 7.4). Control incubations were performed replacing the NADPH-cofactor system by phosphate buffer. Test compounds (1 μM, final solvent concentration 1.6%) were incubated with microsomes at 37° C. and 100 rpm orbital shaking.
# Imipramine and Propranolol were incubated in parallel as reference compounds. Each reaction was performed in duplicate. Five time points over a duration 60 minutes were analysed. The reactions were stopped by adding 12 volumes of 90% acetonitrile in water to incubation aliquots, followed by protein sedimentation by centrifugation. Supernatants were analysed using a Shimadzu VP HPLC system with a reverse phase HPLC column, coupled with tandem mass spectrometer API 3000 (PE Sciex). […] The elimination constant (kel), half-life (t1/2) and intrinsic clearance (Clint) were determined in plot of In(AUC) versus time, using linear regression analysis for each test and reference compound.
# PAMPA assay, GIT model = assay type: in vitro ADME; details: log Papp; pH 7.4, 50 μM, 4 hours, room temperature
# Experimental: In an embodiment, PAMPA assay was carried. All steps of PAMPA assay were carried out according to pION Inc. PAMPA Explorer™ Manual. The main principle of the assay is the compound incubation in the donor chamber with aqueous buffer, which is separated from the acceptor chamber, with another buffer, by a phospholipid or hydrocarbon membrane fixed on a filter support. After the test, concentrations in the corresponding donor and acceptor chambers are measured and permeability is calculated. GIT model was simulated using GIT-0 phospholipid mix. Verapamil and quinidine (high permeability) and ranitidine (low permeability) were used as reference compounds. All compounds were tested in quadruplicates. […] After incubation, aliquots from both chambers were transferred to optic UV-Vis plates and absorbance was recorded in the range of 202-500 nm in 4 nm steps. Compounds with low UV-Vis signal were evaluated by LC-MS/MS (using a Shimadzu VP HPLC system with a reverse phase HPLC column, coupled with tandem mass spectrometer API 3000 (PE Sciex) and TurbolonSpray ion source used in positive ion mode; acquisition and analysis of the data were performed using Analyst 1.5.2 software (PE Sciex)).
# The apparent permeability coefficient was calculated using the formula below. […]
# The apparent permeability coefficient was calculated for each compound (log Papp).
compound,measurement,setting,value
"COc1cccc2ccc(N3CCC(c4nc(-c5ccc(OC(F)(F)F)cc5)no4)CC3)nc12 [Compound 3, 5-(1-(8-methoxyquinolin-2-yl)piperidin-4-yl)-3-(4-(trifluoromethoxy)phenyl)-1,2,4-oxadiazole]",half-life at 1 μM,[1],3.03 h
same,microsomal CLint at 1 μM,[1],9.2 µL/min/mg
same,GIT PAMPA,"PAMPA assay, GIT model",−4.8 log[10^−6 cm/s]
